A short description of experiment [1]: (§1) Inhibition of Nav in mouse Neuro-2a cells assessed as inhibition of ouabain and veratridine-induced cytotoxicity after 24 hrs by WST-8 assay. The format is cell-based.
For the next experiment, the system named is Neuro-2a. Described as §1. The format is cell-based.

Drawing on ChEMBL document CHEMBL3232981, “Isolation of 6-deoxytetrodotoxin from the pufferfish, Takifugu pardalis, and a comparison of the effects of the C-6 and C-11 hydroxy groups of tetrodotoxin on its activity” (J Nat Prod, 2014), this text covers EC50 and inhibition for four molecules.

Usually pEC50 stands for −log10 of the EC50, conventionally taken in molar units.

Molecules are shown by their SMILES. pEC50: −log10 of the molar value.

Take `NC1=N[C@H](O)[C@H]2[C@H]3O[C@]4(O)O[C@@H]([C@@H](O)[C@@]2(N1)[C@@H]4O)[C@]3(O)CO` [TETRODOTOXIN]: the pEC50 in experiment [1] is 8.68. In addition, the inhibition result with Neuro-2a is “Dose-dependent effect”.
As for `N=C1N[C@H](O)[C@H]2[C@H]3O[C@]4(O)O[C@H]([C@@H]3CO)[C@@H](O)[C@@]2(N1)[C@@H]4O`, in experiment [1], the pEC50 was 8.19. Besides, the inhibition result in the experiment on Neuro-2a is “Dose-dependent effect”.
The corresponding values for `C[C@]1(O)[C@@H]2O[C@]3(O)O[C@H]1[C@@H](O)[C@@]1(NC(=N)N[C@H](O)[C@@H]21)[C@@H]3O` are 6.89 and “Dose-dependent effect”.
Turning to `C[C@H]1[C@H]2O[C@@]3(O)O[C@@H]1[C@@H]1[C@@H](O)NC(=N)N[C@]1([C@@H]2O)[C@@H]3O`, the pEC50 in experiment [1] is 6.40. Also, in the experiment with Neuro-2a, the inhibition entry was “Dose-dependent effect”.
